Assay results: patent US20170065564A1, “BIS-CYCLIC GUANIDINE COMPOUND COMPOSITIONS, METHODS OF USE AND TREATMENT THEREOF” (University of South Florida, priority 2014, published 2017)

Experiments:
Type in all cases: cell-based
Acinetobacter baumannii = test: MIC micro broth dilution assay; design: key to stacked score activity, 100/MIC, A: stacked score = 100/MIC; conditions: A. baumannii
Experimental: (§1) For this study we used a representative panel of multi-drug resistant clinical ESKAPE pathogen isolates (Supplemental Table S6).^42 43 3a, 44 45 Gram-positive organisms were grown in tryptic soy broth media (TSB), whilst Gram-negative organisms were grown in lysogeny Broth (LB), as described by us previously. ^43 MIC and MBC determination assays.
(§2) Broth cultures of ESKAPE strains were grown overnight before being diluted 1 in 1,000 in fresh media. Sterile 96-well plates were loaded with culture and compounds (in DMF) were added at decreasing concentrations to equal a total volume of 200 μl per well. Care was taken to not add more than 2.0% DMF to any well. Plates were then incubated at 37° C., and MICs determined after 24 hours by visual inspection for a lack of turbidity in wells. All assays were performed in triplicate with identical results obtained. For both the scaffold ranking and positional scanning samples, relative broad-spectrum activity was determined via stacked scores: […]

Klebsiella pneumoniae = test: MIC micro broth dilution assay; design: key to stacked score activity, 100/MIC, K: stacked score = 100/MIC; conditions: K. pneumoniae
Experimental: as §1, §2

Enterococcus faecium = test: MIC micro broth dilution assay; design: key to stacked score activity, 100/MIC, E: stacked score = 100/MIC; conditions: E. faecium
Experimental: as §1, §2

Enterobacter cloacae = test: MIC micro broth dilution assay; design: key to stacked score activity, 100/MIC, E: stacked score = 100/MIC; conditions: E. cloacae
Experimental: as §1, §2

Staphylococcus aureus = test: MIC micro broth dilution assay; design: key to stacked score activity, 100/MIC, S: stacked score = 100/MIC; conditions: S. aureus
Experimental: as §1, §2

ESKAPE pathogens = test: MIC micro broth dilution assay, statements and stacked scores over all ESKAPE pathogens; conditions: for pathogens against which the compound showed activity at 25 ug/ml / pathogens against which the compound showed activity at 4 ug/ml / pathogens against which the compound showed activity at 5 ug/ml / pathogens against which the compound showed activity at 10 ug/ml: letters E,S,K,A,P,E = ESKAPE pathogens, — = none; for stacked score Total: stacked score over all ESKAPE pathogens (details in Table S4b); for Total stacked score: sum over all six ESKAPE pathogens
Experimental: as §1
as §2, with “The minimum inhibitory concentration (MIC) for the combinatorial libraries, deconvolved 2157 library, and individual compounds were determined as follows. Broth” for “Broth”

SMILES | stacked score activity, 100/MIC, A (Acinetobacter baumannii) | stacked score activity, 100/MIC, K (Klebsiella pneumoniae) | stacked score activity, 100/MIC, E (Enterococcus faecium) | stacked score activity, 100/MIC, E (Enterobacter cloacae) | stacked score activity, 100/MIC, S (Staphylococcus aureus) | pathogens against which the compound showed activity at 25 ug/ml (ESKAPE pathogens) | pathogens against which the compound showed activity at 4 ug/ml (ESKAPE pathogens) | pathogens against which the compound showed activity at 5 ug/ml (ESKAPE pathogens) | pathogens against which the compound showed activity at 10 ug/ml (ESKAPE pathogens) | stacked score Total (ESKAPE pathogens) | Total stacked score (ESKAPE pathogens)
CCC(C)[C@H]1CN(CCCC[C@H]2CNC(=N)N2CC2CCC(C)CC2)C(=N)N1CCc1cccc(C)c1 (some centres unmarked) [Compound 50] | 4 | 0 | 10 | 0 | 10 | ESA |  |  |  |  | 
CCCCCCCN1C(=N)N(CCCC[C@H]2CNC(=N)N2CCC23CC4CC(CC(C4)C2)C3)C[C@H]1Cc1cccc2ccccc12 [Compound 22] | 25 | 20 | 25 | 20 | 20 | ESKAPE | EAP | ESKAE | ESKAE |  | 
N=C1NC[C@H](CCCCN2C[C@H](CC3CCCCC3)N(CCCCC3CCCCC3)C2=N)N1CCC12CC3CC(CC(C3)C1)C2 [Compound 26] | 20 | 20 | 20 | 20 | 20 | ESKAPE |  | ESKAPE | ESKAPE |  | 
N=C1NC[C@H](CCCCN2C[C@@H](Cc3cccc4ccccc34)N(CCCCC3CCCCC3)C2=N)N1CCC12CC3CC(CC(C3)C1)C2 [Compound 23] | 0 | 0 | 4 | 0 | 25 | ESE |  |  |  |  | 
CCCCC1CN(CCCCC2CNC(=N)N2CCC23CC4CC(CC(C4)C2)C3)C(=N)N1CCCCC1CCCCC1 (centres unmarked) [Compound 20] | 25 | 20 | 50 | 20 | 20 | ESKAPE | EAP | ESKAPE | ESKAPE | 160 | 160
CCCCCCCN1C(=N)NC[C@@H]1CCCCN1C[C@@H](CCC)N(CCc2cccc(C)c2)C1=N [Compound 35] | 4 | 0 | 4 | 0 | 10 | ESAP |  |  |  |  | 
CCCCCCCN1C(=N)NC[C@@H]1CCCCN1C[C@H](C(C)CC)N(CCc2cccc(C)c2)C1=N (some centres unmarked) [Compound 32] | 4 | 0 | 10 | 0 | 33 | ESAP |  |  |  |  | 
CCCCCCCN1C(=N)N(CCCC[C@H]2CNC(=N)N2CCCCC2CCCCC2)C[C@H]1Cc1cccc2ccccc12 [Compound 13] | 20 | 20 | 20 | 20 | 20 | ESKAPE |  | ESKAE | ESKAE |  | 
N=C1NC[C@H](CCCCN2C[C@@H](Cc3cccc4ccccc34)N(CCCCC3CCCCC3)C2=N)N1CCCCC1CCCCC1 [Compound 14] | 20 | 20 | 10 | 20 | 20 | ESKAPE |  | SKAE | ESKAE |  | 
N=C1NC[C@H](CCCCN2C[C@H](CC3CCCCC3)N(CCCCC3CCCCC3)C2=N)N1CCCCC1CCCCC1 [Compound 17] | 20 | 20 | 20 | 20 | 20 | ESKAPE |  | ESKAPE | ESKAPE |  | 
CCCC[C@H]1CN(CCCC[C@H]2CNC(=N)N2CCCCC2CCCCC2)C(=N)N1CCCCC1CCCCC1 [Compound 11] | 25 | 20 | 50 | 20 | 20 | ESKAPE |  | ESAPE | ESKAPE |  | 
CCCCCCCN1C(=N)N(CCCC[C@H]2CNC(=N)N2CCC23CC4CC(CC(C4)C2)C3)C[C@@H]1CC1CCCCC1 [Compound 25] | 25 | 20 | 50 | 20 | 20 | ESKAPE | EAP | ESKAPE | ESKAPE |  | 
CCCCC1CN(CCCCC2CNC(=N)N2CCC23CC4CC(CC(C4)C2)C3)C(=N)N1CCc1ccc(-c2ccccc2)cc1 (centres unmarked) [Compound 21] | 25 | 20 | 33 | 20 | 20 | ESKAPE |  | ESKAPE | ESKAPE | 123 | 123
CCCC[C@H]1CN(CCCC[C@H]2CNC(=N)N2CCc2cccc(C(F)(F)F)c2)C(=N)N1CCc1ccc(-c2ccccc2)cc1 [Compound 3] | 25 | 25 | 25 | 20 | 33 | ESKAPE | ESKA | ESKAPE | ESKAPE |  | 
CCCC[C@H]1CN(CCCC[C@H]2CNC(=N)N2CCCCC2CCCCC2)C(=N)N1CCc1ccc(-c2ccccc2)cc1 [Compound 12] | 25 | 20 | 20 | 20 | 20 | ESKAPE |  | ESKAE | ESKAPE |  | 
N=C1NC[C@H](CCCCN2C[C@H](CC3CCCCC3)N(CCc3ccc(-c4ccccc4)cc3)C2=N)N1CCCCC1CCCCC1 [Compound 18] | 20 | 20 | 20 | 20 | 20 | ESKAPE |  | ESKAPE | ESKAPE |  | 
CCCCCCCN1C(=N)N(CCCC[C@H]2CNC(=N)N2CCCCC2CCCCC2)C[C@@H]1CCCC [Compound 10] | 25 | 20 | 25 | 20 | 25 | ESKAPE | ESAP | ESKAPE | ESKAPE |  | 
